{"source": "paper PMC12041489", "about": "(Scientific Reports, 2025)", "key": {"tyrosinase": {"biological_target": "tyrosinase (Agaricus bisporus, UniProt C7FF04)", "sequence (C7FF04 1-392 limits assumed)": "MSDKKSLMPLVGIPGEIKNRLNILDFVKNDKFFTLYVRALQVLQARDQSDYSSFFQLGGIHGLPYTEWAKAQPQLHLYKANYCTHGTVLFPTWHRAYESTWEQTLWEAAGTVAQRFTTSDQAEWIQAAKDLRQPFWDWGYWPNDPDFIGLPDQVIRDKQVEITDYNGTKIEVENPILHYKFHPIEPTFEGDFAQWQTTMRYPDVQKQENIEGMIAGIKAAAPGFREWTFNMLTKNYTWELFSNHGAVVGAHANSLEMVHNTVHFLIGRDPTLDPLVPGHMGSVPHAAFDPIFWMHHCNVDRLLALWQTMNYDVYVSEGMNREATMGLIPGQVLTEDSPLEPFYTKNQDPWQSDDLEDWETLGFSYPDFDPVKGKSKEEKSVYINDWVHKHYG", "experiment": "Fluorescence quenching of tyrosinase", "assay_type": "binding, mushroom", "details": "for Kq / Ksv: λex 280 nm"}, "mushroom tyrosinase [1]": {"biological_target": "T1, mushroom tyrosinase (Agaricus bisporus, UniProt C7FF04)", "T1 sequence (C7FF04 1-392 limits assumed)": "as above", "experiment": "biochemical"}, "[2]": {"experiment": "DPPH free radical scavenging activity assay", "details": "read-out: DPPH radical scavenging IC50"}, "fresh-cut apples": {"system": "fresh-cut apples", "experiment": "Anti-browning experiment on fresh-cut apples", "design": "species or system Fuji apples", "details": "stored at 5 °C for 4 days"}, "mushroom tyrosinase [3]": {"biological_target": "T1, mushroom tyrosinase", "experiment": "Tyrosinase kinetic analysis", "assay_type": "biochemical"}, "[4]": {"experiment": "ABTS radical cation scavenging activity assay", "details": "read-out: ABTS radical scavenging IC50"}, "[5]": {"system": "human umbilical vein endothelial cells (HUVEC)", "experiment": "MTT assay for cell viability", "assay_type": "cell-based", "details": "24-h treatment, up to 32 µM"}}, "note": "Entries after “also recorded” stand apart in the source; their conditions may differ."}
{"molecule": "COc1ccc(C(C)=O)c(OCc2cn(Cc3cc(=O)c(O)co3)nn2)c1", "note": "[Compound 13t, 2-((4-((2-acetyl-5-methoxyphenoxy)methyl)-1H-1,2,3-triazol-1-yl)methyl)-5-hydroxy-4H-pyran-4-one]", "values": [{"measurement": "predominant quenching mechanism", "setting": "tyrosinase; Stern-Volmer plots at 298, 303 and 310 K", "value": "dynamic quenching"}, {"measurement": "Kq", "setting": "tyrosinase; T 298 K", "value": "1.952e+12", "unit": "M⁻¹ s⁻¹"}, {"measurement": "Ksv", "setting": "tyrosinase; T 298 K", "value": 0.01952, "unit": "L/µmol"}, {"measurement": "Kq", "setting": "tyrosinase; T 303 K", "value": "2.478e+12", "unit": "M⁻¹ s⁻¹"}, {"measurement": "Ksv", "setting": "tyrosinase; T 303 K", "value": 0.02478, "unit": "L/µmol"}, {"measurement": "Kq", "setting": "tyrosinase; T 310 K", "value": "2.823e+12", "unit": "M⁻¹ s⁻¹"}, {"measurement": "Ksv", "setting": "tyrosinase; T 310 K", "value": 0.02823, "unit": "L/µmol"}, {"measurement": "IC50", "setting": "mushroom tyrosinase [1]", "value": "1.363 ± 0.003", "unit": "µM"}, {"measurement": "IC50", "setting": "[2]", "value": "57.9 ± 0.28", "unit": "µM"}, {"measurement": "L* value of fresh-cut apples", "setting": "fresh-cut apples; 25 µM", "value": 65.91}, {"measurement": "L* value of fresh-cut apples", "setting": "fresh-cut apples; 50 µM", "value": 66.59}, {"measurement": "L* value of fresh-cut apples", "setting": "fresh-cut apples; 100 µM", "value": 67.87}, {"measurement": "Ki", "setting": "mushroom tyrosinase [3]", "value": 0.365, "unit": "µM"}, {"measurement": "inhibition type", "setting": "mushroom tyrosinase [3]; Lineweaver–Burk double reciprocal plots", "value": "mixed-type inhibitor"}, {"measurement": "IC50", "setting": "[4]", "value": "45.64 ± 0.25", "unit": "µM"}, {"measurement": "toxicity to HUVEC (cell viability)", "setting": "[5]", "value": "no discernible toxicity; also recorded: no evident toxicity"}]}
